Results published in ChEMBL document CHEMBL5126581, “Chlorinated benzothiadiazines inhibit angiogenesis through suppression of VEGFR2 phosphorylation” (Bioorg Med Chem, 2022).
Blank lines part the entries; values can stand above or below the compound they belong to. Activity calls are given as the source filed them. No cut-off for these calls is given here.

How the values were obtained:
HUVEC = assay: Antiangiogenic activity in HUVEC cells assessed as inhibition of VEGF-induced cell proliferation at 20 uM incubated for 48 hrs by MTT assay relative to control; type: functional; settings: Homo sapiens, values are per cent of control
[1] = target: T1, Vascular endothelial growth factor receptor 2 (Homo sapiens, UniProt P35968); assay: Inhibition of VEGFR2 phosphorylation in VEGF-induced HUVEC cells assessed as reduction in pVEGFR2 level at 20 uM incubated for 5 mins by Western blot analysis; type: cell-based
Carbonic anhydrase 1 = Carbonic anhydrase 1 (Homo sapiens, UniProt P00915); assay: Inhibition of recombinant human carbonic anhydrase 1 assessed as inhibition constant incubated for 1 hr prior to testing by phenol red based stopped-flow CO2 hydration assay
Carbonic anhydrase 2 = Carbonic anhydrase 2 (Homo sapiens, UniProt P00918); assay: Inhibition of recombinant human carbonic anhydrase 2 assessed as inhibition constant incubated for 1 hr prior to testing by phenol red based stopped-flow CO2 hydration assay
Carbonic anhydrase 9 = Carbonic anhydrase 9 (Homo sapiens, UniProt Q16790); assay: Inhibition of recombinant human carbonic anhydrase 9 assessed as inhibition constant incubated for 1 hr prior to testing by phenol red based stopped-flow CO2 hydration assay
Carbonic anhydrase 12 = Carbonic anhydrase 12 (Homo sapiens, UniProt O43570); assay: Inhibition of recombinant human carbonic anhydrase 12 assessed as inhibition constant incubated for 1 hr prior to testing by phenol red based stopped-flow CO2 hydration assay
MDA-MB-468 = assay: Cytotoxicity against human MDA-MB-468 cells assessed as inhibition of cell growth incubated for 72 hrs by MTS assay; type: functional, cell-based; settings: MDA-MB-468, 72 h
[2] = target: T1, Vascular endothelial growth factor receptor 2; assay: Inhibition of VEGFR2 (unknown origin) using poly[Glu:Tyr] (4:1) as substrate at 20 uM incubated for 45 mins by kinase-glo max reagent based luminescence analysis relative to control
[3] = target: T1, Vascular endothelial growth factor receptor 2; assay: Inhibition of VEGFR2 (unknown origin) using poly[Glu:Tyr] (4:1) as substrate incubated for 45 mins by kinase-glo max reagent based luminescence analysis
[4] = target: Activated CDC42 kinase 1 (Homo sapiens) (UniProt Q07912); assay: Inhibition of TNK2 (unknown origin) assessed as residual activity at 10 uM incubated for 1 hr by KinomeScan analysis relative to control
[5] = target: T2, Serine/threonine-protein kinase D2 (Homo sapiens) (UniProt Q9BZL6); assay: Inhibition of PRKD2 (unknown origin) assessed as residual activity at 10 uM incubated for 1 hr by KinomeScan analysis relative to control
T2 sequence (whole entry): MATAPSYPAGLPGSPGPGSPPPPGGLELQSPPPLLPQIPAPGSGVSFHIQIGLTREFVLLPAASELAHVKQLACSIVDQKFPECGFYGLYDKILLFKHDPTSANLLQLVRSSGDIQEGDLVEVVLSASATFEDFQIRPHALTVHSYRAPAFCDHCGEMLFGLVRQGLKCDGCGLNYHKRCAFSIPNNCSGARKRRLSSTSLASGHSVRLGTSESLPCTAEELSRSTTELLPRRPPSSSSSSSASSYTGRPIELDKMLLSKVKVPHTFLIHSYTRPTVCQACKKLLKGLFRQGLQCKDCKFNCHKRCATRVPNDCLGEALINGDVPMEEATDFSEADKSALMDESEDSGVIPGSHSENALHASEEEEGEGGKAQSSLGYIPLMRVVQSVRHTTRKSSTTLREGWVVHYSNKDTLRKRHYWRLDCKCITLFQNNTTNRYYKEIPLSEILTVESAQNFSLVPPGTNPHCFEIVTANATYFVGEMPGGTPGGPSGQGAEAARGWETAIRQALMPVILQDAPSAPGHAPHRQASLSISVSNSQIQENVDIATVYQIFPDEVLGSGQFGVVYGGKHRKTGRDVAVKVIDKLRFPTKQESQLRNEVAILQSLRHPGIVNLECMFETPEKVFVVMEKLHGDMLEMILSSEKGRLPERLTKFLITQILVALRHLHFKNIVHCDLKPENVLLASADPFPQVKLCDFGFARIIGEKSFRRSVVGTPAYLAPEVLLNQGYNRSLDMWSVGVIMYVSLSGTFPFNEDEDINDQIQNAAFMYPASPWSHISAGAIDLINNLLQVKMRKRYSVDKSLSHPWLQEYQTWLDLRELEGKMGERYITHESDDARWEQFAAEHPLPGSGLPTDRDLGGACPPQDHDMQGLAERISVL

[6] = target: T3, Myosin light chain kinase family member 4 (Homo sapiens) (UniProt Q86YV6); assay: Inhibition of MYLK4 (unknown origin) assessed as residual activity at 10 uM incubated for 1 hr by KinomeScan analysis relative to control
T3 sequence (whole entry): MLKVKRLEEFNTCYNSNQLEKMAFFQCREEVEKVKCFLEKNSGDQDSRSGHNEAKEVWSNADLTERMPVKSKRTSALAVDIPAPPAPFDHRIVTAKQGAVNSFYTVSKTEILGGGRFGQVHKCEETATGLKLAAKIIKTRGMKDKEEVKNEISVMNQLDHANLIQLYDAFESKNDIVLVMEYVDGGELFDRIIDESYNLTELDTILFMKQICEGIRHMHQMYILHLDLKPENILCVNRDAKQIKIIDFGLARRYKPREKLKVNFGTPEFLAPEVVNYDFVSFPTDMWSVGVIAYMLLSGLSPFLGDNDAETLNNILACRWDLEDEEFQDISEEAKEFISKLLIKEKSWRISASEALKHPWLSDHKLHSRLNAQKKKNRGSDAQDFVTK

[7] = target: Mast/stem cell growth factor receptor Kit (Homo sapiens) (UniProt P10721); assay: Inhibition of c-KIT (unknown origin) assessed as residual activity at 10 uM incubated for 1 hr by KinomeScan analysis relative to control
[8] = Cytotoxicity against HEK293 cells assessed as inhibition of cell growth incubated for 72 hrs by MTS assay; type: toxicity, cell-based; settings: human
[9] = Selectivity index, ratio of IC50 for cytotoxicity against HEK293 cells to IC50 for cytotoxicity against human MDA-MB-468 cells; type: toxicity, cell-based; settings: HEK293 cells versus MDA-MB-468 cells, read-out: Ratio IC50
[10] = Cytotoxicity against HEK293 cells assessed as inhibition of cell growth at 50 uM incubated for 72 hrs by MTS assay relative to control; type: toxicity, cell-based; settings: human

Carbonic anhydrase 1, sequence (P00915 whole entry): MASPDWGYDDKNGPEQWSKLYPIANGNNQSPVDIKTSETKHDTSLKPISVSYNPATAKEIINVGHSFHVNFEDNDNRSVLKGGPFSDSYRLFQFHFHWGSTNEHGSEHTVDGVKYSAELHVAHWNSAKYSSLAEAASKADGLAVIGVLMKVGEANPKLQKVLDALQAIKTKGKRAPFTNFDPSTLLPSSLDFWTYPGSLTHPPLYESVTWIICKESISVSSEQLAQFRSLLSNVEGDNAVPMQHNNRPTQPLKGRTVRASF
T1 sequence (P35968 whole entry): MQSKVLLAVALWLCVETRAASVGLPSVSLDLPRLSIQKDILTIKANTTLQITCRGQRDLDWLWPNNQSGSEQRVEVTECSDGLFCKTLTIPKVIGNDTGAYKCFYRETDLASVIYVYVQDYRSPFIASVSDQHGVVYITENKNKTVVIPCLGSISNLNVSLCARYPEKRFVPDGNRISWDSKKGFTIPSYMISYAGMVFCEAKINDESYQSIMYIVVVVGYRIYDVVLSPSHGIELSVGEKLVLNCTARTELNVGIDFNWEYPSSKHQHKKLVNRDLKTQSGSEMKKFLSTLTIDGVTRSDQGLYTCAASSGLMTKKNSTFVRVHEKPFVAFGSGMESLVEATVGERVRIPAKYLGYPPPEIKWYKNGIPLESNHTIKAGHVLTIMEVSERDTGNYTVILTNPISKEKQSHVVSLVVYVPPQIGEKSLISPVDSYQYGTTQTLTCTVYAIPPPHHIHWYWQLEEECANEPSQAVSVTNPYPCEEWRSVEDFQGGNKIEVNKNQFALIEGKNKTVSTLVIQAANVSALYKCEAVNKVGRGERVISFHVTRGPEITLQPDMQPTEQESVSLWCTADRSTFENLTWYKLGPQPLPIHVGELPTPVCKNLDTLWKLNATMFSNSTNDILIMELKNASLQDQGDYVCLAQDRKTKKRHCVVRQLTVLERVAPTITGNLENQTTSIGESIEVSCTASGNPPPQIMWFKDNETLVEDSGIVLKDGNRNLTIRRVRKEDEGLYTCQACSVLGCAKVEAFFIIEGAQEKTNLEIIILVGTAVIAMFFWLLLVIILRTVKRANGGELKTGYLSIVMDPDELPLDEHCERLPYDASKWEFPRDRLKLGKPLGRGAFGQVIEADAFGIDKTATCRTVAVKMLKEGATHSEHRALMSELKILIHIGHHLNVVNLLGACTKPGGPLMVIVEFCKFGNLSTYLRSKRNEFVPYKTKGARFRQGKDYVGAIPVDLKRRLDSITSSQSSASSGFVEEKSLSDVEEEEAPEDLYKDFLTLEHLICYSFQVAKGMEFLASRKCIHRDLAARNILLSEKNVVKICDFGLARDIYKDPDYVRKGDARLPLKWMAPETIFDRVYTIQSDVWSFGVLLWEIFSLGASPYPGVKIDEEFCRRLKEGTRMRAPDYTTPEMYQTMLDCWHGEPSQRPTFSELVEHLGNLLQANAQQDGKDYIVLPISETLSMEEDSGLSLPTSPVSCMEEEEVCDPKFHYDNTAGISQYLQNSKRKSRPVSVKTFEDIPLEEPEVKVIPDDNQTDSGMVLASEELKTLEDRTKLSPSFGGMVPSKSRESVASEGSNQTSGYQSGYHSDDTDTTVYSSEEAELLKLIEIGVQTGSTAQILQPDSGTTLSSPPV
Carbonic anhydrase 12, sequence (O43570 whole entry): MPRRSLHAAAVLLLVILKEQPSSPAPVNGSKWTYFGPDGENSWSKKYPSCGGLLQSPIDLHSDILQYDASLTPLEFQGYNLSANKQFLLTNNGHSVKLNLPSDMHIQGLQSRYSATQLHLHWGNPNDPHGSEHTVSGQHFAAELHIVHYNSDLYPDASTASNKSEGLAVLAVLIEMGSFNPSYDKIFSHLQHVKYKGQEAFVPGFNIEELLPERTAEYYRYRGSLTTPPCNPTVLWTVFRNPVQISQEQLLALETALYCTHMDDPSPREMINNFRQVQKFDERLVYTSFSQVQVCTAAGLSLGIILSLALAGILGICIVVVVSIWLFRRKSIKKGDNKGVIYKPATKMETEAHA
Mast/stem cell growth factor receptor Kit (Homo sapiens), sequence (P10721 whole entry): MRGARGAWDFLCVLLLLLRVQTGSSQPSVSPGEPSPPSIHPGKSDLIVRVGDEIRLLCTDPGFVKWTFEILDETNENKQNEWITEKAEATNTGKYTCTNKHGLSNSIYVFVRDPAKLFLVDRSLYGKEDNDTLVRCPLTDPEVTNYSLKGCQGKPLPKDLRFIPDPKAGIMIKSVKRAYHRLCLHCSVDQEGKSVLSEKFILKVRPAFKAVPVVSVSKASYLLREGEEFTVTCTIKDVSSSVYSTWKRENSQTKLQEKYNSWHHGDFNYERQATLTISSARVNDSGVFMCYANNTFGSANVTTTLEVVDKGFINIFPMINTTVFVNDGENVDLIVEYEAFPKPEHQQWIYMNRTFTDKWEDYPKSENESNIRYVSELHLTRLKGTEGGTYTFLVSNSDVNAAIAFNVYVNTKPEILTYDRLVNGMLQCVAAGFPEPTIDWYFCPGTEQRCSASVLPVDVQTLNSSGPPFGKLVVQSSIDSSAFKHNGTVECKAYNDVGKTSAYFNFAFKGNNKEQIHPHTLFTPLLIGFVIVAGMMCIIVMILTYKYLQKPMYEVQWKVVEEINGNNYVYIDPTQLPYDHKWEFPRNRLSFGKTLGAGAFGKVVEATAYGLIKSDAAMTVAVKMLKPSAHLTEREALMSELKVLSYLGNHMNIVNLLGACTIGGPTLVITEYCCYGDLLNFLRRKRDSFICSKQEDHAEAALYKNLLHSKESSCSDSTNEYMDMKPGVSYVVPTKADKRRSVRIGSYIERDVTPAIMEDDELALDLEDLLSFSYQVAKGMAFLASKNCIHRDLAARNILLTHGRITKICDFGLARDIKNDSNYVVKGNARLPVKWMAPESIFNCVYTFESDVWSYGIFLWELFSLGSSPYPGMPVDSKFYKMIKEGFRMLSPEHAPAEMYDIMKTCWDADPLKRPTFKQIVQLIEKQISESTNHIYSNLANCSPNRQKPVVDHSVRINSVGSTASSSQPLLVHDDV
Activated CDC42 kinase 1 (Homo sapiens), sequence (Q07912 whole entry, looked up): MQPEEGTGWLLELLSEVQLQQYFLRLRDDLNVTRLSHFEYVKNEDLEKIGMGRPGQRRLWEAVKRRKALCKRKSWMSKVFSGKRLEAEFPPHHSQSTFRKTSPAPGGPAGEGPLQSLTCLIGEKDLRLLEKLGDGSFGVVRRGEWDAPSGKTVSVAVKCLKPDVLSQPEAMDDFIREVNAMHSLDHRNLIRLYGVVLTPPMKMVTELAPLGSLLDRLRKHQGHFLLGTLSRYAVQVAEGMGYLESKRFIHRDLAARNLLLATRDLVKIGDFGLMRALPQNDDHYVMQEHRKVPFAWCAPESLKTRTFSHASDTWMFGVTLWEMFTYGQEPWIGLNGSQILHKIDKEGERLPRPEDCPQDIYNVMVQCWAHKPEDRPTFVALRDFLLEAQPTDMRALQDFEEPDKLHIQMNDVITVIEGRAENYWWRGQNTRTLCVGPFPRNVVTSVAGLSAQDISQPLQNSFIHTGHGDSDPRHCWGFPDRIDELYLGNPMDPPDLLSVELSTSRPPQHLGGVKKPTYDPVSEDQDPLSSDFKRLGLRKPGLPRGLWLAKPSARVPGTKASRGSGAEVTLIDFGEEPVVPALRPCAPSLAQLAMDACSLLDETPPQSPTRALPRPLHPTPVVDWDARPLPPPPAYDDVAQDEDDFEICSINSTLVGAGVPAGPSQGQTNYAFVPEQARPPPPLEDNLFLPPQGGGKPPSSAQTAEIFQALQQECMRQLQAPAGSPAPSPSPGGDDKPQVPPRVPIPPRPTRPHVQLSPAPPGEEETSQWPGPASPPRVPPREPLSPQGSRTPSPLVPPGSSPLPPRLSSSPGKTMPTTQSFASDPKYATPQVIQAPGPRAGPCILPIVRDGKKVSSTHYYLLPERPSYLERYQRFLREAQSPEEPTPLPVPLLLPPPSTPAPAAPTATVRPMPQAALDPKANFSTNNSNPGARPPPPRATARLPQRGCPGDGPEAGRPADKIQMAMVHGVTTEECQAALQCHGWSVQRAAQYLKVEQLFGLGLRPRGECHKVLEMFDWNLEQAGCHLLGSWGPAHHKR

SMILES: O=S1(=O)N=C(NCc2ccc(OC(F)(F)F)cc2)Nc2cc(Cl)ccc21
- growth, % of control at 20 µM (HUVEC): 199%
- inhibition [1]: Active
- inhibition [2]: 33%
- IC50 [3]: 140 µM
- Activity [4]: 0.1%
- Activity [5]: 8%
- Activity [6]: 33%
- Activity [7]: 32%
- IC50 (MDA-MB-468): 48 µM
- IC50 at 72 h [8]: 77.2 µM
- selectivity ratio [9]: 1.6

SMILES: CNC(=O)c1cc(Oc2ccc(NC(=O)Nc3ccc(Cl)c(C(F)(F)F)c3)cc2)ccn1 [SORAFENIB]
- IC50 (MDA-MB-468): 7.31 µM
- IC50 at 72 h [8]: 2.95 µM
- inhibition at 72 h, 50 µM [10]: 99%

SMILES: O=S1(=O)N=C(NCc2ccc(F)cc2F)Nc2cc(Cl)ccc21
- growth, % of control at 20 µM (HUVEC): 172%
- IC50 (MDA-MB-468): 84.6 µM
- IC50 at 72 h [8]: 129 µM
- selectivity ratio [9]: 1.5

SMILES: CC(NC1=NS(=O)(=O)c2ccccc2N1)c1ccccc1 (configuration not stated)
- growth, % of control at 20 µM (HUVEC): 25.2%
- inhibition [1]: Active
- IC50 (MDA-MB-468): 58.5 µM

SMILES: O=S1(=O)N=C(NCc2ccc(F)cc2F)Nc2ccc(Cl)cc21
- growth, % of control at 20 µM (HUVEC): 133%
- IC50 (MDA-MB-468): 45.5 µM
- IC50 at 72 h [8]: 58.9 µM
- selectivity ratio [9]: 1.3

SMILES: O=S1(=O)N=C(NCc2ccccc2)Nc2cc(Cl)ccc21
- growth, % of control at 20 µM (HUVEC): 200%
- IC50 (MDA-MB-468): 64.2 µM
- IC50 at 72 h [8]: 102 µM
- selectivity ratio [9]: 1.5

The next lines start with results.

- inhibition [1]: Active
- Ki (Carbonic anhydrase 1): > 100 µM
- Ki (Carbonic anhydrase 2): > 100 µM
- Ki (Carbonic anhydrase 9): > 100 µM
- Ki (Carbonic anhydrase 12): > 100 µM
SMILES: O=S1(=O)N=C(NCc2ccc(OC(F)(F)F)cc2)Nc2ccc(Br)cc21
- growth, % of control at 20 µM (HUVEC): 127%
- IC50 (MDA-MB-468): 39.1 µM

- Ki (Carbonic anhydrase 1): 0.0501 µM
- Ki (Carbonic anhydrase 2): 0.0088 µM
- Ki (Carbonic anhydrase 12): 0.0038 µM
SMILES: NS(=O)(=O)c1ccc(CCNC2=NS(=O)(=O)c3ccc(Cl)cc3N2)cc1

- Ki (Carbonic anhydrase 1): > 100 µM
- Ki (Carbonic anhydrase 2): > 100 µM
- Ki (Carbonic anhydrase 9): > 100 µM
- Ki (Carbonic anhydrase 12): > 100 µM
SMILES: COc1ccc(CNC2=NS(=O)(=O)c3cc(Cl)ccc3N2)cc1
- growth, % of control at 20 µM (HUVEC): 90.7%
- IC50 (MDA-MB-468): 62.9 µM

- inhibition [1]: Active
SMILES: O=S1(=O)N=C(NC2CCCC2)Nc2ccc(Cl)cc21
- IC50 (MDA-MB-468): 77 µM

- Ki (Carbonic anhydrase 1): > 100 µM
- Ki (Carbonic anhydrase 2): > 100 µM
- Ki (Carbonic anhydrase 9): > 100 µM
- Ki (Carbonic anhydrase 12): > 100 µM
SMILES: COc1ccc(CCNC2=NS(=O)(=O)c3cc(F)ccc3N2)cc1

- inhibition [1]: Active
SMILES: Cc1cccc(CNC2=NS(=O)(=O)c3cc(Cl)ccc3N2)c1
- growth, % of control at 20 µM (HUVEC): 145%
- IC50 (MDA-MB-468): 117 µM

- inhibition [1]: Active
SMILES: COc1cccc(CNC2=NS(=O)(=O)c3cc(Cl)ccc3N2)c1
- growth, % of control at 20 µM (HUVEC): 95.5%
- IC50 (MDA-MB-468): > 100 µM
